Reference: patent US20070049593A1 (priority 2004, published 2007)
pIC50: −log10 of the molar value. Structures can show the parent of a compound that is named as a salt.

Target: T1, HCV polymerase (Hepatitis C virus genotype 1b, UniProt P26663)
T1 construct: a region encoding NS5B (J Virol 1991 March, 65(3), 1105-13, 544 amino acids after deletion of 47 amino acids on the C-terminal); 6xHis (C); made in house; host or cells: Escherichia coli
Test: biochemical
Design: species or system HCV BK strain
Outline: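 His-tagged NS5B (BK strain, 47-aa C-terminal deletion, E. coli-expressed) at 0.5 μg/ml copied 5 μg/ml run-off RNA bearing the HCV 3′ UTR with 2 μM UTP plus [3H]UTP, 50 μM ATP/GTP, in pH 7.5 Tris with 5 mM MgCl2, 25 °C, 90 min. TCA-precipitated RNA was counted and IC50 calculated.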

T1 sequence (P26663 2420-2963): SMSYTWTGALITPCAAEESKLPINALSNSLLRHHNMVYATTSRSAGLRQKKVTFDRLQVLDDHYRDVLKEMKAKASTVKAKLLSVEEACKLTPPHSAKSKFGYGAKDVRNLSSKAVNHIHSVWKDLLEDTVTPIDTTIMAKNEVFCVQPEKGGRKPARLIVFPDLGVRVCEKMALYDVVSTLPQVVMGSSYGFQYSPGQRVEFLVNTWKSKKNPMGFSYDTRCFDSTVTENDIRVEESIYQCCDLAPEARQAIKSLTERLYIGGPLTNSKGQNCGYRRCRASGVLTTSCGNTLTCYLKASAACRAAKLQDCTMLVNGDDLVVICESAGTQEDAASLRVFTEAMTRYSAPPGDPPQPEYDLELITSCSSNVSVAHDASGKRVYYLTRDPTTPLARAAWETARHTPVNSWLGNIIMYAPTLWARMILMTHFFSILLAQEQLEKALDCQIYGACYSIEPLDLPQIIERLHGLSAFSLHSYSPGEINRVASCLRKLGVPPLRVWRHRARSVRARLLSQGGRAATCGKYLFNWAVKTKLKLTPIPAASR

| Structure (SMILES) | pIC50 |
| --- | --- |
| Cc1cc(COc2ccc3c(c2)N(CC[N+](C)(C)Cc2cc(C)on2)CCn2c-3c(C3CCCCC3)c3ccc(C(=O)O)cc32)no1 [Example 1-344, N-{2-[10-carboxy-13-cyclohexyl-3-(5-methylisoxazol-3-ylmethoxy)-6,7-dihydro-benzo[5,6][1,4]diazepino[7,1-a]indol-5-yl]ethyl}-N,N-dimethyl-N-(5-methylisoxazol-3-ylmethyl)ammonium chloride monohydrochloride] | > 7.00 |
| CCOc1ccc2c(c1)N(CCN1CCCC(C)C1)CCn1c-2c(C2CCCCC2)c2ccc(C(=O)O)cc21 (stereo not shown) [Example 1-345, 13-cyclohexyl-3-ethoxy-5-[2-(3-methylpiperidin-1-yl)ethyl]-6,7-dihydro-5H-benzo[5,6][1,4]diazepino[7,1-a]indole-10-carboxylic acid dihydrochloride] | > 7.00 |
| CCCc1ccc2c(c1)N(CCN1CCCC(COC)C1)CCn1c-2c(C2CCCCC2)c2ccc(C(=O)O)cc21 (stereo not shown) [Example 1-346, 13-cyclohexyl-5-[2-(3-methoxymethylpiperidin-1-yl)ethyl]-3-propyl-6,7-dihydro-5H-benzo[5,6][1,4]diazepino[7,1-a]indole-10-carboxylic acid dihydrochloride] | > 7.00 |
| CCOc1ccc2c(c1)N(CCN1CCCC(CC)C1)CCn1c-2c(C2CCCCC2)c2ccc(C(=O)O)cc21 (stereo not shown) [Example 1-347, 13-cyclohexyl-3-ethoxy-5-[2-(3-ethylpiperidin-1-yl)ethyl]-6,7-dihydro-5H-benzo[5,6][1,4]diazepino[7,1-a]indole-10-carboxylic acid dihydrochloride] | > 7.00 |
| CCC1CCCN(CCN2CCn3c(c(C4CCCCC4)c4ccc(C(=O)O)cc43)-c3ccc(OCc4ccccc4)cc32)C1 (stereo not shown) [Example 1-348, 3-benzyloxy-13-cyclohexyl-5-[2-(3-ethylpiperidin-1-yl)ethyl]-6,7-dihydro-5H-benzo[5,6][1,4]diazepino[7,1-a]indole-10-carboxylic acid dihydrochloride] | > 7.00 |
| CCOc1ccc2c(c1)N(CCC1CCCN(C(C)C)C1)CCn1c-2c(C2CCCCC2)c2ccc(C(=O)O)cc21 (stereo not shown) [Example 1-349, 13-cyclohexyl-3-ethoxy-5-[2-(1-isopropylpiperidin-3-yl)ethyl]-6,7-dihydro-5H-benzo[5,6][1,4]diazepino[7,1-a]indole-10-carboxylic acid dihydrochloride] | > 7.00 |
| CCc1ccc2c(c1)N(CCN1CCCC(CC)C1)CCn1c-2c(C2CCCCC2)c2ccc(C(=O)O)cc21 (stereo not shown) [Example 1-350, 13-cyclohexyl-3-ethyl-5-[2-(3-ethylpiperidin-1-yl)ethyl]-6,7-dihydro-5H-benzo[5,6][1,4]diazepino[7,1-a]indole-10-carboxylic acid dihydrochloride] | > 7.00 |
| CC(C)C1CCCN(CCN2CCn3c(c(C4CCCCC4)c4ccc(C(=O)O)cc43)-c3ccc(Cl)cc32)C1 (stereo not shown) [Example 1-351, 3-chloro-13-cyclohexyl-5-[2-(3-isopropylpiperidin-1-yl)ethyl]-6,7-dihydro-5H-benzo[5,6][1,4]diazepino[7,1-a]indole-10-carboxylic acid dihydrochloride] | > 7.00 |
| COCC1CCCN(CCCN2CCn3c(c(C4CCCCC4)c4ccc(C(=O)O)cc43)-c3ccc(Cl)cc32)C1 (stereo not shown) [Example 1-352, 3-chloro-13-cyclohexyl-5-[3-(3-methoxymethylpiperidin-1-yl)propyl]-6,7-dihydro-5H-benzo[5,6][1,4]diazepino[7,1-a]indole-10-carboxylic acid monohydrochloride] | > 7.00 |
| CCC1CCCCN1CCCN1CCn2c(c(C3CCCCC3)c3ccc(C(=O)O)cc32)-c2ccc(Cl)cc21 (stereo not shown) [Example 1-353, 3-chloro-13-cyclohexyl-5-[3-(2-ethylpiperidin-1-yl)propyl]-6,7-dihydro-5H-benzo[5,6][1,4]diazepino[7,1-a]indole-10-carboxylic acid dihydrochloride] | > 7.00 |
| CCCc1ccc2c(c1)N(CCC1CCCN(C(C)C)C1)CCn1c-2c(C2CCCCC2)c2ccc(C(=O)O)cc21 (stereo not shown) [Example 1-354, 13-cyclohexyl-5-[2-(1-isopropylpiperidin-3-yl)ethyl]-3-propyl-6,7-dihydro-5H-benzo[5,6][1,4]diazepino[7,1-a]indole-10-carboxylic acid dihydrochloride] | > 7.00 |
| COCC1CCCCN1CCCN1CCn2c(c(C3CCCCC3)c3ccc(C(=O)O)cc32)-c2ccc(Cl)cc21 (stereo not shown) [Example 1-355, 3-chloro-13-cyclohexyl-5-[3-(2-methoxymethylpiperidin-1-yl)propyl]-6,7-dihydro-5H-benzo[5,6][1,4]diazepino[7,1-a]indole-10-carboxylic acid dihydrochloride] | > 7.00 |
| CCCc1ccc2c(c1)N(CCN1CCCC(C)C1)CCn1c-2c(C2CCCCC2)c2ccc(C(=O)O)cc21 (stereo not shown) [Example 1-356, 13-cyclohexyl-5-[2-(3-methylpiperidin-1-yl)ethyl]-3-propyl-6,7-dihydro-5H-benzo[5,6][1,4]diazepino[7,1-a]indole-10-carboxylic acid dihydrochloride] | > 7.00 |
| CCCc1ccc2c(c1)N(CCN1CCCC(CC)C1)CCn1c-2c(C2CCCCC2)c2ccc(C(=O)O)cc21 (stereo not shown) [Example 1-357, 13-cyclohexyl-5-[2-(3-ethylpiperidin-1-yl)ethyl]-3-propyl-6,7-dihydro-5H-benzo[5,6][1,4]diazepino[7,1-a]indole-10-carboxylic acid dihydrochloride] | > 7.00 |
| COCC1CCCN(CCN2CCn3c(c(C4CCCCC4)c4ccc(C(=O)O)cc43)-c3ccc(OCc4ccccc4)cc32)C1 (stereo not shown) [Example 1-358, 3-benzyloxy-13-cyclohexyl-5-[2-(3-methoxymethylpiperidin-1-yl)ethyl]-6,7-dihydro-5H-benzo[5,6][1,4]diazepino[7,1-a]indole-10-carboxylic acid dihydrochloride] | > 7.00 |
| CC(C)c1ccc2c(c1)N(CCN1CCCC1)CCn1c-2c(C2CCCCC2)c2ccc(C(=O)O)cc21 [Example 1-359, 13-cyclohexyl-3-isopropyl-5-[2-(pyrrolidin-1-yl)ethyl]-6,7-dihydro-5H-benzo[5,6][1,4]diazepino[7,1-a]indole-10-carboxylic acid monohydrochloride] | > 7.00 |
| CCc1ccc2c(c1)N(CCN1CCCC1)CCn1c-2c(C2CCCCC2)c2ccc(C(=O)O)cc21 [Example 1-360, 13-cyclohexyl-3-ethyl-5-[2-(pyrrolidin-1-yl)ethyl]-6,7-dihydro-5H-benzo[5,6][1,4]diazepino[7,1-a]indole-10-carboxylic acid monohydrochloride] | > 7.00 |
| CC1CCCN(CCN2CCn3c(c(C4CCCCC4)c4ccc(C(=O)O)cc43)-c3ccc(OCc4ccccc4)cc32)C1 (stereo not shown) [Example 1-361, 3-benzyloxy-13-cyclohexyl-5-[2-(3-methylpiperidin-1-yl)ethyl]-6,7-dihydro-5H-benzo[5,6][1,4]diazepino[7,1-a]indole-10-carboxylic acid dihydrochloride] | > 7.00 |
| CC(C)N1CCCC(CCN2CCn3c(c(C4CCCCC4)c4ccc(C(=O)O)cc43)-c3ccc(OCc4ccccc4)cc32)C1 (stereo not shown) [Example 1-362, 3-benzyloxy-13-cyclohexyl-5-[2-(1-isopropylpiperidin-3-yl)ethyl]-6,7-dihydro-5H-benzo[5,6][1,4]diazepino[7,1-a]indole-10-carboxylic acid dihydrochloride] | > 7.00 |
| Cc1cc(COc2ccc3c(c2)N(CCN2CCCCC2)CCn2c-3c(C3CCCCC3)c3ccc(C(=O)O)cc32)no1 [Example 1-363, 13-cyclohexyl-3-(5-methylisoxazol-3-ylmethoxy)-5-[2-(piperidin-1-yl)ethyl]-6,7-dihydro-5H-benzo[5,6][1,4]diazepino[7,1-a]indole-10-carboxylic acid dihydrochloride] | > 7.00 |
| CC(C)C1CCCN(CCN2CCn3c(c(C4CCCCC4)c4ccc(C(=O)O)cc43)-c3ccccc32)C1 (stereo not shown) [Example 1-364, 13-cyclohexyl-5-[2-(3-isopropylpiperidin-1-yl)ethyl]-6,7-dihydro-5H-benzo[5,6][1,4]diazepino[7,1-a]indole-10-carboxylic acid dihydrochloride] | > 7.00 |
| Cc1ccc2c(c1)N(CCN1CCCC(C(C)C)C1)CCn1c-2c(C2CCCCC2)c2ccc(C(=O)O)cc21 (stereo not shown) [Example 1-365, 13-cyclohexyl-5-[2-(3-isopropylpiperidin-1-yl)ethyl]-3-methyl-6,7-dihydro-5H-benzo[5,6][1,4]diazepino[7,1-a]indole-10-carboxylic acid dihydrochloride] | > 7.00 |
| CCc1ccc2c(c1)N(CCN1CCCC(COC)C1)CCn1c-2c(C2CCCCC2)c2ccc(C(=O)O)cc21 (stereo not shown) [Example 1-366, 13-cyclohexyl-3-ethyl-5-[2-(3-methoxymethylpiperidin-1-yl)ethyl]-6,7-dihydro-5H-benzo[5,6][1,4]diazepino[7,1-a]indole-10-carboxylic acid dihydrochloride] | > 7.00 |
| COCC1CCCN(CCN2CCn3c(c(C4CCCCC4)c4ccc(C(=O)O)cc43)-c3ccc(C(C)C)cc32)C1 (stereo not shown) [Example 1-367, 13-cyclohexyl-3-isopropyl-5-[2-(3-methoxymethylpiperidin-1-yl)ethyl]-6,7-dihydro-5H-benzo[5,6][1,4]diazepino[7,1-a]indole-10-carboxylic acid dihydrochloride] | > 7.00 |
| CC1CCCN1CCCN1CCn2c(c(C3CCCCC3)c3ccc(C(=O)O)cc32)-c2ccc(Cl)cc21 (stereo not shown) [Example 1-368, 3-chloro-13-cyclohexyl-5-[3-(2-methylpyrrolidin-1-yl)propyl]-6,7-dihydro-5H-benzo[5,6][1,4]diazepino[7,1-a]indole-10-carboxylic acid] | > 7.00 |
